What follows are compounds tested against CYP3A4 (Homo sapiens, UniProt P08684) (assay: Inhibition of CYP3A4 at 10 uM by fluorimetry assay in presence of NADP; values are per cent of control).
Chain of CYP3A4 (P08684 whole entry): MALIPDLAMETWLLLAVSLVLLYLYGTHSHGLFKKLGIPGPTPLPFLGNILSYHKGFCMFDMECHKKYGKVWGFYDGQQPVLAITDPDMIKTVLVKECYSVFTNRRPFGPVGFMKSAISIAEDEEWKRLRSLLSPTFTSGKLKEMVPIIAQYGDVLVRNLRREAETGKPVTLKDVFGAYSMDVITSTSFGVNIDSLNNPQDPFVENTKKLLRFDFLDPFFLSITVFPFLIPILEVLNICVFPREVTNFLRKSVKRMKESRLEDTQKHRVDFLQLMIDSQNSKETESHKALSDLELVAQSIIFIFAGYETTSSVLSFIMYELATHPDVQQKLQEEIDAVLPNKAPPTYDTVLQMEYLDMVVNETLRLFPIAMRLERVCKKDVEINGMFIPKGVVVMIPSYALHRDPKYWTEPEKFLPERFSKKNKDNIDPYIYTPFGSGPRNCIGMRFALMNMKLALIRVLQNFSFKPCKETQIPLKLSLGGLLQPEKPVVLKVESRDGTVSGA

Compound	residual activity at 10 µM [%]
N[C@@H](CC(=O)N1N=CCC1C(=O)NCc1ccccc1)Cc1cc(F)c(F)cc1F (stereo not given in full)	18.8
N[C@@H](CC(=O)N1N=CCC1C(=O)NCc1ccc(C(=O)O)cc1)Cc1cc(F)c(F)cc1F (stereo not given in full)	62
CCOC(=O)COc1ccc(NC(=O)C2CC=NN2C(=O)C[C@H](N)Cc2cc(F)c(F)cc2F)cc1 (stereo not given in full)	6.9
N[C@@H](CC(=O)N1N=CCC1C(=O)Nc1ccc(OCC(=O)O)cc1)Cc1cc(F)c(F)cc1F (stereo not given in full)	59.3
Nc1ccc(CNC(=O)C2CC=NN2C(=O)C[C@H](N)Cc2cc(F)c(F)cc2F)cc1 (stereo not given in full)	4.5
